# Laboratory results as given in patent US20230129745A1, “COMPOUNDS, COMPOSITIONS, AND METHODS TO TREAT METABOLIC DISEASE” (Board of Supervisors of Louisiana State University and …, priority 2020, published 2023).
# Key:
# PPARγ = molecular target: T1, PPARγ (Homo sapiens, UniProt P37231); conditions: Choi et al. 2011; cited from earlier work
# T1 construct: NIH-3T3 cells stably transfected with full-length PPARγ (A); expressed in transfected cells
# T1 sequence (P37231 1-505): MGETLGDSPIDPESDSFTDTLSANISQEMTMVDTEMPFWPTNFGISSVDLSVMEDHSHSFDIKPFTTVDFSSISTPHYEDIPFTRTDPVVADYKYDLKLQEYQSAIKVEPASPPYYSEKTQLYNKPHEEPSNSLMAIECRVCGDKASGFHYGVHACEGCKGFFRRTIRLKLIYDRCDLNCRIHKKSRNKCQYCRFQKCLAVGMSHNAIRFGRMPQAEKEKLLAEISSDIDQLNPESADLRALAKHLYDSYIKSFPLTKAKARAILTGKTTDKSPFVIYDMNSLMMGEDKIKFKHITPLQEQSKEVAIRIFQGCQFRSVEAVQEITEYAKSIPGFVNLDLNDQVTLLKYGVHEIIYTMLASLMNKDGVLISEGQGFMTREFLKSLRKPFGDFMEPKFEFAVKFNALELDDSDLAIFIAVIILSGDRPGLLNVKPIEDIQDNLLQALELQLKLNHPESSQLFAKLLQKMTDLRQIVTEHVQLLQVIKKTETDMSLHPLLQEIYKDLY
# 3T3-L1 adipocytes [1] = conditions: published data; cited from earlier work
# 3T3-L1 cells = assay: Lipid accumulation (Oil Red O) in differentiating 3T3-L1 cells; type: cell-based, murine; conditions: for dose dependence of lipid accumulation activity / lipid accumulation (Oil Red O staining): 2.5, 10, and 25 μM; for lipid accumulation (Oil Red O staining): relative to DMSO; for adipogenesis (Oil Red O and AdipoQ, Fabp4, Pparγ expression): 2.5, 10, or 25 μM, half-strength MDI, FIG. 27
# Method: Cells were then either fixed and stained with Oil Red O (4 days post-differentiation) (panel A), or harvested (3 days post differentiation) for RNA isolation and gene expression analysis of adiponectin (AdipoQ), fatty acid binding protein 4 (Fabp4), or Ppary (panels B-D). All treatments compared to their respective DMSO controls. The Effects of SCO and ROSI were analyzed by t-test, while the effects of individual test compounds were analyzed by one-way ANOVA. *[…], **P<0.01, ***P<0.001, ****P<0.0001 vs DMSO controls.
# Cell Culture and Treatments. 3T3-L1 preadipocytes (murine) were cultured as previously described,^3 and induced to differentiate two days after reaching confluence. For experiments using mature adipocytes, cells were induced with a standard methylxanthine-dexamethasone-insulin (MDI) cocktail, which contains 0.5 mM isobutylmethylxanthine (IBMX), 1 μM dexamethasone (DEX), and 1.72 μM insulin in high-glucose Dulbecco's Modified Eagle Medium (DMEM) supplemented with 10% fetal bovine serum (FBS). IBMX, DEX, insulin, and DMEM were obtained from Sigma-Aldrich (St. Louis, Mo.), and FBS from Hyclone (GE Healthcare Life Sciences, Logan, Utah). For differentiation experiments, cells were induced with half-strength MDI cocktail […]. In both cases, cells were fed with high-glucose DMEM+10% FBS with 0.43 μM insulin three days following MDI induction. Test compounds were dissolved in dimethylsulfoxide (DMSO) as 1000× stocks. For differentiation experiments, cells were treated with the compounds (or DMSO vehicle as a control) at the time of induction and at the first feeding there after (3 days post-MDI). For lipolysis experiments on mature adipocytes, cells were fed with high-glucose DMEM+10% FBS 6 days after MDI and treated with test compounds or DMSO vehicle for three days. On the third day cells were also treated overnight with 0.75 nM tumor necrosis factor alpha (TNFα) (Life Technologies, Carlsbad, Calif.) or its vehicle [0.1% bovine serum albumin (BSA) in phosphate buffered saline (PBS)]. The following morning, the culture medium was replaced with lipolysis incubation medium (low-glucose DMEM+2% BSA) and 0.75 nM TNFα(or vehicle). After 4 hours, conditioned medium and cell lysates were collected.
# Lipid Accumulation Assay. Five days after MDI induction, cell monolayers were fixed in 10% neutral buffered formalin (ThermoFisher, Waltham, Mass.) and stained with the neutral lipid stain, Oil Red O (ORO). Plates were scanned to generate images of staining. The ORO was then eluted in isopropyl alcohol, and absorbance of eluates was measured at 520 nm for quantitation.
# 3T3-L1 adipocytes [2] = assay: TNFα-induced lipolysis (glycerol release) in 3T3-L1 adipocytes; type: cell-based, murine; conditions: 2.5, 10, or 25 μM, 3-day pretreatment; 0.75 nM TNFα
# Method: Fully differentiated 3T3-L1 adipocytes pretreated for three days with 50 μg/ml SCO or varying doses of test compounds (2.5, 10, or 25 μM), then overnight with 0.75 nM TFNα (or vehicle). After 4 hours, the conditioned medium was collected and assayed for glycerol. Data was expressed as fold-change vs TNFα-only treatment. Data from no-TNFα controls and each test compound were analyzed by one-way ANOVA. **P<0.01, ****P<0.0001 vs TNFα-only condition.
# Cell Culture and Treatments. 3T3-L1 preadipocytes (murine) were cultured as previously described,^3 and induced to differentiate two days after reaching confluence. For experiments using mature adipocytes, cells were induced with a standard methylxanthine-dexamethasone-insulin (MDI) cocktail, which contains 0.5 mM isobutylmethylxanthine (IBMX), 1 μM dexamethasone (DEX), and 1.72 μM insulin in high-glucose Dulbecco's Modified Eagle Medium (DMEM) supplemented with 10% fetal bovine serum (FBS). IBMX, DEX, insulin, and DMEM were obtained from Sigma-Aldrich (St. Louis, Mo.), and FBS from Hyclone (GE Healthcare Life Sciences, Logan, Utah). […]
# FABP4 secretion and lipolysis assays. […] Conditioned media samples were collected after four hours and analyzed for FAPB4 content by immunoblotting. Lipolysis was also assessed by measuring glycerol concentrations in the samples, using free glycerol reagent from Sigma-Aldrich.
# [3] = LC-MS of serum from mice fed HFD containing 1% Artemisia scoparia extract; type: in vivo; conditions: archived serum, SCO feeding study in high fat-fed mice, after 4-hour fast
# Method: Serum samples of control or SCO-treated mice were analyzed directly without enzyme hydrolysis after protein precipitation (top 2 panels) or after glucuronidase enzyme digestion followed by solvent partitioning (lower 2 panels). Chromatograms were created using selected ion monitoring of m/z 315.159-315.161 specific to capillartemisins. In addition to specific mass, the identity of capillartemisin A was confirmed using our in-house library of spectral data that was confirmed using NMR spectroscopy.
# To conduct in vivo assessments of SP's bioavailability or pharmacokinetics, we sent six-year-old archived serum samples from our last SCO feeding study in high fat-fed mice for analysis. These samples were collected at the time of sacrifice after a 4-hour fast, in conditions that were not designed for detection of SCO compounds in the circulation. […] However, capillartemisin A was detected (FIG. 12).
# caspase 1 = molecular target: T2, caspase 1 (Mus musculus, UniProt P29452); conditions: literature; cited from earlier work
# T2 sequence (P29452 119-402): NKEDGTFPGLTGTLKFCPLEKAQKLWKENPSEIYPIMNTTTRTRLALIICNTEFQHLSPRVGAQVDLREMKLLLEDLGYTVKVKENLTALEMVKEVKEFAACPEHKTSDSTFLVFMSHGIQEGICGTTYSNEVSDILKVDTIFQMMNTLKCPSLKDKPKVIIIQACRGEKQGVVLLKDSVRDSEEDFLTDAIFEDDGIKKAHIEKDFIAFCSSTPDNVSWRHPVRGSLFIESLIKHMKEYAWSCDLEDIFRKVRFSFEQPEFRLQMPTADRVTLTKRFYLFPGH
# [4] = 14 days of treatment, db/db mice; cited from earlier work
SMILES,adipogenesis / adipocyte differentiation (3T3-L1 adipocytes [1]),dose dependence of lipid accumulation activity (3T3-L1 cells),lipid accumulation (Oil Red O staining) (3T3-L1 cells),"adipogenesis (Oil Red O and AdipoQ, Fabp4, Pparγ expression) (3T3-L1 cells)",inhibition of TNFα-induced lipolysis (glycerol release) (3T3-L1 adipocytes [2]),detection in serum (LC-MS) [3],also measured
CC(C)=CCc1cc(/C=C/C(=O)O)cc(CC=C(C)C)c1O [Artepillin C],enhance adipogenesis,–,–,–,–,–,PPARγ activation (PPARγ): activate
"CC(C)=CCc1cc(/C=C/C(=O)O)cc(C/C=C(\C)CO)c1O [Compound 2, capillartemisin A]",–,active in a dose-dependent manner,enhanced lipid accumulation,promote adipogenesis,not able to significantly mitigate,detected,–
"CC(C)=CCc1cc(/C=C/C(=O)O)cc(C/C=C(/C)CO)c1O [Compound 3, capillartemisin B]",–,best activity over the tested dose range,enhanced lipid accumulation,promote adipogenesis,not able to significantly mitigate,did not detect,–
"O=C(/C=C/c1ccc(O)c(O)c1)O[C@@H]1CC(O)(C(=O)O)C[C@@H](OC(=O)/C=C/c2ccc(O)c(O)c2)C1O (stereo partly drawn) [DEQA, 3,5-dicaffeoyl-epi-quinic acid]",do not promote adipogenesis,–,–,–,–,–,caspase 1 activity (caspase 1): reduce
CN(CCOc1ccc(CC2SC(=O)NC2=O)cc1)c1ccccn1 (stereo not drawn) [rosiglitazone],–,–,–,–,–,–,hematocrit [4]: decreases hematocrit by as much as three percentage points
